Test results published in US20230255927A1 (ELANCO TIERGESUNDHEIT AG, priority 2022, published 2023).
Marks after values point to notes of the source that are not given here.

Test system: lactating dairy cattle
Test: Combined analysis of Wisconsin and New York Studies
Type: in vivo
Set-up: DMI / NEL: unit not given here
Conditions: for Milk protein percentage: all treatments
Procedure: The instant example provides the combined analysis of data from the two studies (Wisconsin Study and New York Study). The two studies were combined statistically to explore effects on milk production efficiency and other variables associated with efficiency. By effectively doubling pen numbers an increase in power of the analysis was provided. Analysis of these combined datasets was performed in various ways, with the inclusion of either weekly milk yield averages or sample day milk yields to calculate milk component yields, component corrected yields, and feed efficiency. Further, the combined dataset was analyzed using data collected from all experimental weeks as well as the exclusion of data from the first three weeks of experimental treatment feeding. This was done to exclude any shifts in response variables while the rumen environment was adapting to the treatment provided. Materials & Methods: All data from both experimental locations were combined and statistically analyzed as a longitudinal experiment design through SAS version 9.4 (SAS Institute Inc., Cary, N.C.). Experimental response variables, excluding body condition score (BCS), were analyzed using PROC MIXED and […] statements to compare treatment means using the following model: γijklm=μ+[…] Where γijklm=an individual observation of the response variable analyzed, Ti=the i^th dietary treatment, Wj=the j^th experimental week, TWij=the interaction of the i^th treatment with the j^th experimental week, Lk=the k^th experimental location, Pl(i*k)=the 1th pen within the i^th treatment and k^th experimental location, WPjl(i*k)=the interaction of the j^th experimental week with the 1th pen within the i^th treatment and k^th experimental location, Cm(l*i*k)=the m^th cow within the 1th pen, the i^th treatment and k^th experimental location, BXmlik=the covariate observation obtained after three weeks of feeding a common diet to all treatment groups, and ∈ijklmn=the random error of the m^th cow within the 1th pen, the i^th treatment and the k^th location. […] Data were analyzed with pen as the experimental unit and cow as the observational unit. Dietary treatment and experimental week were considered fixed effects, whereas location, pen and cow were considered random effects. An auto-regressive covariance structure [AR(1)] was used to analyze repeated measurements (week of experimental period) with cow nested in pen within treatment as the subject. For pen level observations (DMI, production efficiency and NEL measurements), the main effect of cattle was dropped from the statistical model above. Further, pen was used as the subject of the auto-regressive repeated analysis. Degrees of freedom were adjusted using the Kenward-Roger option and multiple treatment […] comparisons were adjusted by the Tukey method. Non-parametric analysis of BCS measurements, via PROC NPAR1WAY, was performed to evaluate differences in dietary treatments at both the initiation of the experiment and during the final week of the experiments. Statistical significance was reported as P≤0.05 and tendencies as 0.05<P≤0.10. […] This analysis, deemed the 'post-acclimation' analysis, removed the first three experimental weeks of data from the experimental dataset, leaving only the fourth to ninth weeks for statistical interpretation. The statistical model was identical to the previously described approach and all data, except for body weight and NEL (due to missing data), were reanalyzed for interpretation.

[1] = 11 g/ton, experimental weeks 4 through 9
[2] = 11 g/ton, sample day, entire experiment
[3] = 11 g/ton, sample day, weeks 4 through 9
[4] = 11 g/ton, weekly averaged, entire experiment
[5] = 11 g/ton, weekly averaged, weeks 4 through 9
[6] = 14.5 g/ton, experimental weeks 4 through 9
[7] = 14.5 g/ton, sample day, entire experiment
[8] = 14.5 g/ton, sample day, weeks 4 through 9
[9] = 14.5 g/ton, weekly averaged, entire experiment
[10] = 14.5 g/ton, weekly averaged, weeks 4 through 9
[11] = 18 g/ton, experimental weeks 4 through 9
[12] = 18 g/ton, sample day, entire experiment
[13] = 18 g/ton, sample day, weeks 4 through 9
[14] = 18 g/ton, weekly averaged, entire experiment
[15] = 18 g/ton, weekly averaged, weeks 4 through 9

CC[C@@]1([C@@H]2O[C@@H]([C@H]3O[C@@](O)(CO)[C@H](C)C[C@@H]3C)C[C@@H]2C)CC[C@H]([C@]2(C)CC[C@]3(C[C@H](O)[C@@H](C)[C@@H]([C@@H](C)[C@@H](OC)[C@H](C)C(=O)O)O3)O2)O1 [monensin]
DMI (11 g/ton, entire experiment): 59.7 | MUN (11 g/ton, entire experiment): 11.0^b mg/dL | Milk Fat, % (11 g/ton, entire experiment): 4.45% | Milk Fatty Acid: De novo (11 g/ton, entire experiment): 1.08^b g/100 g | Milk Fatty Acid: Mixed (11 g/ton, entire experiment): 1.79 g/100 g | Milk Fatty Acid: Performed (11 g/ton, entire experiment): 1.32 g/100 g | Milk Fatty Acid: Total FA (11 g/ton, entire experiment): 4.20 g/100 g | Milk Lactose, % (11 g/ton, entire experiment): 4.66% | Milk Protein, % (11 g/ton, entire experiment): 3.29% | DMI [1]: 59.5 | MUN [1]: 11.1^by mg/dL | Milk Fat, % [1]: 4.46% | Milk Fatty Acid: Mixed [1]: 1.79^ab g/100 g | Milk Fatty Acid: Performed [1]: 1.33 g/100 g | Milk Fatty Acid: Total FA [1]: 4.21 g/100 g | Milk Lactose, % [1]: 4.65% | Milk Protein, % [1]: 3.33% | NEL (11 g/ton, sample day milk yield, entire experiment): 1.53 | Day of Sample Milk Yield [2]: 92.0 lb | ECM [2]: 100.8^a lb | ECM:Feed [2]: 1.72^a | FCM [2]: 95.3^a lb | FCM:Feed [2]: 1.63^a | Fat yield [2]: 4.05^xy lb | Lactose yield [2]: 4.30 lb | Milk:Feed [2]: 1.56^xy | Protein yield [2]: 3.02 lb | SCM [2]: 95.2^xy lb | SCM:Feed [2]: 1.59^ab | Day of Sample Milk Yield [3]: 90.6 lb | ECM [3]: 102.0^ab lb | ECM:Feed [3]: 1.71^abx | FCM [3]: 96.2^ab lb | FCM:Feed [3]: 1.61^b | Fat yield [3]: 3.98^ab lb | Lactose yield [3]: 4.23 lb | Milk:Feed [3]: 1.54^xy | Protein yield [3]: 3.01 lb | SCM [3]: 93.9^ab lb | SCM:Feed [3]: 1.57^abx | NEL (11 g/ton, weekly averaged milk yield, entire experiment): 1.53 | ECM [4]: 102.8 lb | ECM:Feed [4]: 1.73^aby | FCM [4]: 97.2 lb | FCM:Feed [4]: 1.64^b | Fat yield [4]: 4.03 lb | Lactose yield [4]: 4.27 lb | Milk Yield [4]: 91.5 lb | Milk:Feed [4]: 1.57 | Protein yield [4]: 3.00 lb | SCM [4]: 94.7^xy lb | SCM:Feed [4]: 1.59^by | ECM [5]: 101.6^y lb | ECM:Feed [5]: 1.72^b | FCM [5]: 95.9^y lb | FCM:Feed [5]: 1.62^b | Fat yield [5]: 3.97^ab lb | Lactose yield [5]: 4.19 lb | Milk Yield [5]: 90.4 lb | Milk:Feed [5]: 1.55 | Protein yield [5]: 2.99 lb | SCM [5]: 93.5^aby lb | SCM:Feed [5]: 1.58^b | DMI (14.5 g/ton, entire experiment): 59.2 | Milk Fat, % (14.5 g/ton, entire experiment): 4.47% | Milk Fatty Acid: De novo (14.5 g/ton, entire experiment): 1.08^b g/100 g | Milk Fatty Acid: Mixed (14.5 g/ton, entire experiment): 1.80 g/100 g | Milk Fatty Acid: Performed (14.5 g/ton, entire experiment): 1.31 g/100 g | Milk Fatty Acid: Total FA (14.5 g/ton, entire experiment): 4.20 g/100 g | Milk Lactose, % (14.5 g/ton, entire experiment): 4.67% | Milk Protein, % (14.5 g/ton, entire experiment): 3.30% | DMI [6]: 59.5 | MUN [6]: 11.0^b mg/dL | Milk Fat, % [6]: 4.50% | Milk Fatty Acid: Mixed [6]: 1.82^b g/100 g | Milk Fatty Acid: Performed [6]: 1.32 g/100 g | Milk Fatty Acid: Total FA [6]: 4.23 g/100 g | Milk Lactose, % [6]: 4.66% | Milk Protein, % [6]: 3.33% | NEL (14.5 g/ton, sample day milk yield, entire experiment): 1.55 | Day of Sample Milk Yield [7]: 92.6 lb | ECM [7]: 104.1^b lb | ECM:Feed [7]: 1.77^b | FCM [7]: 98.6^b lb | FCM:Feed [7]: 1.68^b | Fat yield [7]: 4.09^y lb | Lactose yield [7]: 4.34 lb | Milk:Feed [7]: 1.61^y | Protein yield [7]: 3.03 lb | SCM [7]: 96.0^y lb | SCM:Feed [7]: 1.64^b | Day of Sample Milk Yield [8]: 91.3 lb | ECM [8]: 103.3^b lb | ECM:Feed [8]: 1.75^by | FCM [8]: 97.6^b lb | FCM:Feed [8]: 1.66^c | Fat yield [8]: 4.06^b lb | Lactose yield [8]: 4.27 lb | Milk:Feed [8]: 1.57^y | Protein yield [8]: 3.02 lb | SCM [8]: 95.2^b lb | SCM:Feed [8]: 1.62^by | NEL (14.5 g/ton, weekly averaged milk yield, entire experiment): 1.54 | ECM [9]: 102.4 lb | ECM:Feed [9]: 1.74^b | FCM [9]: 96.9 lb | FCM:Feed [9]: 1.65^b | Fat yield [9]: 4.03 lb | Lactose yield [9]: 4.26 lb | Milk Yield [9]: 91.0 lb | Milk:Feed [9]: 1.57 | Protein yield [9]: 2.98 lb | SCM [9]: 94.5^y lb | SCM:Feed [9]: 1.61^b | ECM [10]: 101.7^y lb | ECM:Feed [10]: 1.72^b | FCM [10]: 96.1^y lb | FCM:Feed [10]: 1.63^b | Fat yield [10]: 4.00^b lb | Lactose yield [10]: 4.19 lb | Milk Yield [10]: 89.8 lb | Milk:Feed [10]: 1.54 | Protein yield [10]: 2.97 lb | SCM [10]: 93.7^b lb | SCM:Feed [10]: 1.58^b | Sample day milk yield difference from the control treatment (18 g/ton treatment, post-acclimation data): 1.5 pounds | DMI (18 g/ton, entire experiment): 59.7 | MUN (18 g/ton, entire experiment): 10.4^ab mg/dL | Milk Fat, % (18 g/ton, entire experiment): 4.42% | Milk Fatty Acid: De novo (18 g/ton, entire experiment): 1.06^ab g/100 g | Milk Fatty Acid: Mixed (18 g/ton, entire experiment): 1.77 g/100 g | Milk Fatty Acid: Performed (18 g/ton, entire experiment): 1.30 g/100 g | Milk Fatty Acid: Total FA (18 g/ton, entire experiment): 4.13 g/100 g | Milk Lactose, % (18 g/ton, entire experiment): 4.66% | Milk Protein, % (18 g/ton, entire experiment): 3.29% | DMI [11]: 60.2 | MUN [11]: 10.4^abx mg/dL | Milk Fat, % [11]: 4.43% | Milk Fatty Acid: De novo [11]: 1.07^ab g/100 g | Milk Fatty Acid: Mixed [11]: 1.78^ab g/100 g | Milk Fatty Acid: Performed [11]: 1.32 g/100 g | Milk Fatty Acid: Total FA [11]: 4.16 g/100 g | Milk Lactose, % [11]: 4.66% | Milk Protein, % [11]: 3.32% | NEL (18 g/ton, sample day milk yield, entire experiment): 2.39 | Day of Sample Milk Yield [12]: 91.6 lb | ECM [12]: 102.2^ab lb | ECM:Feed [12]: 1.71^a | FCM [12]: 96.7^ab lb | FCM:Feed [12]: 1.61^a | Fat yield [12]: 3.99^xy lb | Lactose yield [12]: 4.27 lb | Milk:Feed [12]: 1.55^x | Protein yield [12]: 2.98 lb | SCM [12]: 94.1^xy lb | SCM:Feed [12]: .157^a | Day of Sample Milk Yield [13]: 90.6 lb | ECM [13]: 101.4^ab lb | ECM:Feed [13]: 1.67^a | FCM [13]: 95.8^ab lb | FCM:Feed [13]: 1.58^ab | Fat yield [13]: 3.96^ab lb | Lactose yield [13]: 4.22 lb | Milk:Feed [13]: 1.51^x | Protein yield [13]: 2.97 lb | SCM [13]: 93.4^ab lb | SCM:Feed [13]: 1.54^a | NEL (18 g/ton, weekly averaged milk yield, entire experiment): 2.38 | ECM [14]: 100.9 lb | ECM:Feed [14]: 1.69^ax | FCM [14]: 95.5 lb | FCM:Feed [14]: 1.60^a | Fat yield [14]: 3.95 lb | Lactose yield [14]: 4.22 lb | Milk Yield [14]: 90.4 lb | Milk:Feed [14]: 1.53 | Protein yield [14]: 2.95 lb | SCM [14]: 93.1^x lb | SCM:Feed [14]: 1.56^a | ECM [15]: 100.2^xy lb | ECM:Feed [15]: 1.66^a | FCM [15]: 94.6^xy lb | FCM:Feed [15]: 1.56^a | Fat yield [15]: 3.91^ab lb | Lactose yield [15]: 4.16 lb | Milk Yield [15]: 89.4 lb | Milk:Feed [15]: 1.50 | Protein yield [15]: 2.94 lb | SCM [15]: 92.3^ab lb | SCM:Feed [15]: 1.53^a | Milk protein percentage (entire study): 3.29% | Milk protein percentage (post-acclimation period): 3.32%
